Data reported in patent US20210393633A1, “INHIBITORS OF HUMAN IMMUNODEFICIENCY VIRUS REPLICATION” (ViiV HEALTHCARE UK (NO.5) LIMITED, priority 2018, published 2021).

Assays:
[1] = system: recombinant NL4-3 virus (nef section replaced with Renilla luciferase gene) in MT-2 cells; test: HIV cell culture assay (antiviral activity, luciferase readout in infected MT-2 cells); format: cell-based; conditions: NL43
Protocol: HIV cell culture assay—MT-2 cells, 293T cells and the proviral DNA clone of NL4-3 virus were obtained from the NIH AIDS Research and Reference Reagent Program. MT-2 cells were propagated in RPMI 1640 media supplemented with 10% heat inactivated fetal bovine serum (FBS), […]. The 293T cells were propagated in DMEM media supplemented with 10% heat inactivated FBS, […]. A recombinant NL4-3 proviral clone, in which a section of the nef gene was replaced with the Renilla luciferase gene, was used to make the reference virus used in these studies. The recombinant virus was prepared through transfection of the recombinant NL4-3 proviral clone into 293T cells using Transit-293 Transfection Reagent from Minis Bio LLC (Madison, Wis.). Supernatent was harvested after 2-3 days and the amount of virus present was titered in MT-2 cells using luciferase enzyme activity as a marker by measuring luciferase enzyme activity. Luciferase was quantitated using the EnduRen Live Cell Substrate from Promega (Madison, Wis.). Antiviral activities of compounds toward the recombinant virus were quantified by measuring luciferase activity in MT-2 cells infected for 4-5 days with the recombinant virus in the presence of serial dilutions of the compound.
The 50% effective concentration (EC5o) was calculated by using the exponential form of the median effect equation where (Fa)=1/[1+(ED50/drug conc.)m] (Johnson Va., Byington R T. Infectivity Assay. In Techniques in HIV Research. ed. Aldovini A, Walker B D. 71-76. New York: Stockton Press.1990). The 50% inhibitory concentration (EC50) was calculated by using the exponential form of the median effect equation where percent inhibition=1/[1 +(EC50/drug concentration)m], where m is a parameter that reflects the slope of the concentration-response curve.

[2] = Compound cytotoxicity, XTT-based colorimetric assay; format: cell-based; conditions: human; uninfected MT2 cells, day 4, XTT
Protocol: Compound cytotoxicity and the corresponding CC50 values were determined using the same protocol as described in the antiviral assay except that uninfected cells were used. Cytotoxicity was assessed on day 4 in uninfected MT2 cells by using a XTT (2,3-bis[2-Methoxy-4-nitro-5-sulfophenyl]-2H-tetrazolium-5-carboxyanilide inner salt)-based colorimetric assay (Sigma-Aldrich, St Louis, Mo).

SMILES	EC50 [1]	CC50 at 4 day [2]
Cn1nc(NS(C)(=O)=O)c2c(Cl)ccc(-n3c([C@H](Cc4cc(F)cc(F)c4)NC(=O)Cn4nc(C(F)F)c5c4C(F)(F)[C@@H]4C[C@H]54)nc4cc(C5=CCOCC5)ccc4c3=O)c21 (atropisomer, axis not shown; (P)) [Example 9, N—((S)-1-((3P)-3-(4-chloro-1-methyl-3-(methylsulfonamido)-1H-indazol-7-yl)-7-(3,6-dihydro-2H-pyran-4-yl)-4-oxo-3,4-dihydroquinazolin-2-yl)-2-(3,5-difluorophenyl)ethyl)-2-((3bS,4aR)-3-(difluoromethyl)-5,5-difluoro-3b,4,4a,5-tetrahydro-1H-cyclopropa[3,4]cyclopenta[1,2-c]pyrazol-1-yl)acetamide]	0.064 nM	> 1000 nM
CCCCCCCCc1ccc2c(=O)n(-c3ccc(Cl)c4c(NS(C)(=O)=O)nn(C)c34)c([C@H](Cc3cc(F)cc(F)c3)NC(=O)Cn3nc(C(F)F)c4c3C(F)(F)[C@@H]3C[C@H]43)nc2c1 (atropisomer, axis not shown; (P)) [Example 4, N—((S)-1-((3P)-3-(4-chloro-1-methyl-3-(methylsulfonamido)-1H-indazol-7-yl)-7-octyl-4-oxo-3,4-dihydroquinazolin-2-yl)-2-(3,5-difluorophenyl)ethyl)-2-((3bS,4aR)-3-(difluoromethyl)-5,5-difluoro-3b,4,4a, 5-tetrahydro-1H-cyclopropa[3, 4]cyclopenta [1,2-c]pyrazol-1-yl)acetamide]	3.9 nM	> 1000 nM
Cn1nc(NS(C)(=O)=O)c2c(Cl)ccc(-n3c([C@H](Cc4cc(F)cc(F)c4)NC(=O)Cn4nc(C(F)F)c5c4C(F)(F)[C@@H]4C[C@H]54)nc4cc(Cc5ccccc5)ccc4c3=O)c21 (atropisomer, axis not shown; (P)) [Example 5, N—((S)-1-(7-benzyl-(3P)-3-(4-chloro-1-methyl-3-(methylsulfonamido)-1H-indazol-7-yl)-4-oxo-3,4-dihydroquinazolin-2-yl)-2-(3,5-difluorophenyl)ethyl)-2-((3bS,4aR)-3-(difluoromethyl)-5,5-difluoro-3b,4,4a,5-tetrahydro-1H-cyclopropa[3,4]cyclopenta[1,2-c]pyrazol-1-yl)acetamide]	0.221 nM	> 1000 nM
C[C@@H]1CC(c2ccc3c(=O)n(-c4ccc(Cl)c5c(NS(C)(=O)=O)nn(C)c45)c([C@H](Cc4cc(F)cc(F)c4)NC(=O)Cn4nc(C(F)F)c5c4C(F)(F)[C@@H]4C[C@H]54)nc3c2)=C[C@H](C)O1 (atropisomer, axis not shown; (P)) [Example 19, N—((S)-1-((3P)-3-(4-chloro-1-methyl-3-(methylsulfonamido)-1H-indazol-7-yl)-7-((2R,6S)-2,6-dimethyl-3,6-dihydro-2H-pyran-4-yl)-4-oxo-3,4-dihydroquinazolin-2-yl)-2-(3,5-difluorophenyl)ethyl)-2-((3bS,4aR)-3-(difluoromethyl)-5,5-difluoro-3b,4,4a,5-tetrahydro-1H-cyclopropa[3,4]cyclopenta[1,2-c]pyrazol-1-yl)acetamide]	0.08 nM	> 500 nM
CC(C)CCC(F)(F)c1ccc2c(=O)n(-c3ccc(Cl)c4c(NS(C)(=O)=O)nn(C)c34)c([C@H](Cc3cc(F)cc(F)c3)NC(=O)Cn3nc(C(F)F)c4c3C(F)(F)[C@@H]3C[C@H]43)nc2c1 (atropisomer, axis not shown; (P)) [Example 23, N—((S)-1-((3P)-3-(4-chloro-1-methyl-3-(methylsulfonamido)-1H-indazol-7-yl)-7-(1,1-difluoro-4-methylpentyl)-4-oxo-3,4-dihydroquinazolin-2-yl)-2-(3,5-difluorophenyl)ethyl)-2-((3bS,4aR)-3-(difluoromethyl)-5,5-difluoro-3b,4,4a,5-tetrahydro-1H-cyclopropa[3,4]cyclopenta[1,2-c]pyrazol-1-yl)acetamide]	4.4 nM	
